These results are taken from PubChem BioAssay (NCI).

SMILES strings stand for the structures.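 Test compounds were applied to cells in 96-well plates for 48 hours at 5 doses. TGI marks complete inhibition of growth.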

Some test systems named below: 786-0 renal; HOP-92 NSCLC; KM12 colon; KM20L2 colon; NCI-H23 lung; NCI-H522 lung; OVCAR-3 ovarian; RXF 393 renal; SF-268 CNS; SK-MEL-28 melanoma; SN12C renal; SW-620 colon; HL-60(TB) leukemia; HT29 colon; NCI-H460 lung; OVCAR-8 ovarian; SF-295 CNS; SNB-75 CNS; NCI/ADR-RES ovarian; T-47D breast.
Holding throughout (experiment): DTP human tumour cell line panel, 48 h

Turning to `Cc1ccc(C(c2c(O)c3ccccc3n(-c3ccccc3)c2=O)c2c(O)c3ccccc3n(-c3ccccc3)c2=O)cc1`, the TGI with 786-0 renal, with HOP-92 NSCLC, with KM12 colon, in the assay with KM20L2 colon, with NCI-H23 lung and in the assay with NCI-H522 lung was more than 100 µM each time. Also, the TGI in the assay on OVCAR-3 ovarian, with RXF 393 renal, in the assay with SF-268 CNS, in the assay with SK-MEL-28 melanoma, in the assay with SN12C renal and in the assay with SW-620 colon was more than 100 µM in each case.

Consider `NC(=O)/C(=N\NC(=O)C[n+]1ccccc1)C1NC(=O)NC1=O` (stereo unspecified), for which the TGI in the assay on 786-0 renal, in the assay with HL-60(TB) leukemia, in the assay on HOP-92 NSCLC, in the assay with HT29 colon, with KM12 colon and with KM20L2 colon was more than 100 µM throughout. Also, the total growth inhibition concentration (TGI) in the assay on NCI-H23 lung, in the assay on NCI-H460 lung, with OVCAR-3 ovarian, in the assay with OVCAR-8 ovarian, in the assay with RXF 393 renal and in the assay on SF-268 CNS was more than 100 µM throughout. The TGI in the assay with SF-295 CNS, in the assay with SK-MEL-28 melanoma, with SN12C renal, in the assay on SNB-75 CNS and in the assay on SW-620 colon was more than 100 µM each time.

With `O=C1CC2(CCC3=C(O2)c2ccccc2NC(=O)C3)C(=O)c2ccccc2N1` (stereo unspecified), the TGI with 786-0 renal, with HL-60(TB) leukemia, in the assay on HT29 colon, in the assay with KM12 colon, in the assay with KM20L2 colon and in the assay with NCI-H23 lung was more than 100 µM throughout. Besides, the TGI in the assay on NCI-H460 lung, with NCI-H522 lung, with OVCAR-3 ovarian, in the assay on OVCAR-8 ovarian, in the assay with RXF 393 renal and in the assay with SF-268 CNS was more than 100 µM in each case. In addition, the TGI with SF-295 CNS, with SK-MEL-28 melanoma, with SN12C renal, in the assay on SNB-75 CNS and with SW-620 colon was more than 100 µM in each case.

In the case of `O=c1c2ccccc2nc2n1-c1ccccc1SC2`, the TGI in the assay with 786-0 renal, in the assay on HOP-92 NSCLC, in the assay with HT29 colon, in the assay with KM12 colon, with KM20L2 colon and in the assay with NCI-H23 lung was more than 100 µM each time. Besides, the TGI (usually the concentration at which net growth stops) in the assay with NCI-H460 lung was more than 100 µM; in the assay with NCI-H522 lung it was 70.8 µM; in the assay with OVCAR-3 ovarian, more than 100 µM; in the assay on OVCAR-8 ovarian, more than 100 µM; in the assay with RXF 393 renal it was more than 100 µM; in the assay with SF-268 CNS, more than 100 µM. Further, the TGI was more than 100 µM in the assay with SF-295 CNS; more than 100 µM in the assay on SK-MEL-28 melanoma; more than 100 µM with SN12C renal; 56.2 µM in the assay with SNB-75 CNS; more than 100 µM in the assay on SW-620 colon.

Regarding `O=C1NC(=O)C(C(=O)C(=O)Nc2ccc(Cl)cc2Cl)C(=O)N1`, the TGI with 786-0 renal, with HL-60(TB) leukemia, in the assay with HOP-92 NSCLC, in the assay with KM12 colon, in the assay with KM20L2 colon and with NCI-H460 lung was more than 100 µM each time. Further, the TGI with OVCAR-3 ovarian, in the assay on OVCAR-8 ovarian, in the assay on SF-295 CNS and with SW-620 colon was more than 100 µM throughout.

With `CN(C)CCCNC(=O)CCNC(=O)c1cc(NC(=O)c2cc(NC(=O)c3cc(NC(=O)c4nccn4C)cn3C)cn2C)cn1C`, the TGI in the assay with 786-0 renal, in the assay on HL-60(TB) leukemia, with HOP-92 NSCLC, with HT29 colon, with KM12 colon and with NCI-H23 lung was more than 100 µM throughout. Also, the TGI in the assay on NCI-H460 lung was more than 100 µM; in the assay with NCI-H522 lung, 97 µM; in the assay on NCI/ADR-RES ovarian, more than 100 µM; in the assay with OVCAR-3 ovarian, more than 100 µM; with OVCAR-8 ovarian, more than 100 µM; in the assay with RXF 393 renal, more than 100 µM. Also, the TGI in the assay on SF-268 CNS, with SF-295 CNS, in the assay with SK-MEL-28 melanoma, with SN12C renal, with SNB-75 CNS and in the assay on SW-620 colon was more than 100 µM throughout. Further, the TGI with T-47D breast stood at 97.4 µM.

For the compound `CCOC(=O)Cn1c(=O)c2nc(SC)sc2n(-c2ccccc2)c1=S`, the TGI in the assay on 786-0 renal is 30.9 µM; in the assay on HL-60(TB) leukemia, 59.4 µM; with HOP-92 NSCLC it was 21 µM; in the assay with HT29 colon, more than 100 µM; in the assay on KM12 colon, 94.9 µM; in the assay with NCI-H23 lung, more than 100 µM. The TGI was 99.4 µM in the assay with NCI-H460 lung; more than 100 µM in the assay on NCI-H522 lung; more than 100 µM in the assay with NCI/ADR-RES ovarian; 97.7 µM in the assay with OVCAR-3 ovarian; 95.8 µM in the assay with OVCAR-8 ovarian; 52.2 µM with RXF 393 renal. The TGI with SF-268 CNS is more than 100 µM; in the assay with SF-295 CNS, more than 100 µM; in the assay with SK-MEL-28 melanoma, more than 100 µM; in the assay on SN12C renal it was more than 100 µM; in the assay with SNB-75 CNS, 12.5 µM; in the assay with SW-620 colon, more than 100 µM. In the assay on T-47D breast, the TGI is more than 100 µM.

With `O=C(SC1=NCCN1)c1cccc2ccccc12`, the TGI was more than 100 µM with 786-0 renal; 67 µM in the assay with HL-60(TB) leukemia; more than 100 µM in the assay on HOP-92 NSCLC; more than 100 µM in the assay with HT29 colon; more than 100 µM in the assay with KM12 colon; more than 100 µM with NCI-H23 lung. For the same compound, the TGI in the assay with NCI-H460 lung was more than 100 µM; in the assay with NCI-H522 lung, 74.9 µM; in the assay on NCI/ADR-RES ovarian, more than 100 µM; in the assay on OVCAR-3 ovarian it was more than 100 µM; in the assay with OVCAR-8 ovarian, more than 100 µM; in the assay on RXF 393 renal it was more than 100 µM. In addition, the TGI in the assay with SF-268 CNS was more than 100 µM; with SF-295 CNS it was more than 100 µM; in the assay on SK-MEL-28 melanoma, more than 100 µM; with SN12C renal, more than 100 µM; in the assay on SNB-75 CNS, 96.8 µM; in the assay on SW-620 colon, more than 100 µM. The TGI with T-47D breast is more than 100 µM.

Regarding `COC(=O)C1=C(OC(=O)/C(=C/c2ccccc2)c2ccc(Cl)cc2)C(C(=O)OC)[C@@]2(O)[C@@H](C(=O)OC)[C@H](C)C[C@@H]1[C@@H]2C(=O)OC` (stereo partly specified), the TGI with 786-0 renal, in the assay with HL-60(TB) leukemia, with HOP-92 NSCLC, with HT29 colon, in the assay on KM12 colon and in the assay on NCI-H23 lung was more than 100 µM in each case. Besides, the TGI in the assay with NCI-H460 lung, in the assay on NCI-H522 lung, in the assay with NCI/ADR-RES ovarian, in the assay on OVCAR-3 ovarian, in the assay on OVCAR-8 ovarian and in the assay with RXF 393 renal was more than 100 µM throughout. For the same compound, the TGI with SF-268 CNS, in the assay with SF-295 CNS, in the assay with SK-MEL-28 melanoma, in the assay with SN12C renal, with SNB-75 CNS and in the assay on SW-620 colon was more than 100 µM each time. This compound had a TGI with T-47D breast of more than 100 µM.

On to `N#Cc1ccc(N2CCOCC2)cc1`, for which the TGI with 786-0 renal, in the assay on HL-60(TB) leukemia, in the assay on HOP-92 NSCLC, in the assay with HT29 colon, in the assay with KM12 colon and with NCI-H23 lung was more than 100 µM in each case. Besides, the TGI in the assay with NCI-H460 lung, in the assay with NCI-H522 lung, in the assay on NCI/ADR-RES ovarian, with OVCAR-3 ovarian, in the assay with OVCAR-8 ovarian and with RXF 393 renal was more than 100 µM throughout. The TGI with SF-268 CNS, in the assay on SF-295 CNS, with SK-MEL-28 melanoma, with SN12C renal, in the assay on SNB-75 CNS and in the assay with SW-620 colon was more than 100 µM throughout. Moreover, the TGI in the assay with T-47D breast was more than 100 µM.

Consider `Cc1ccc([N+](=O)[O-])cc1S(=O)(=O)Nc1ccc(C2=NOC(c3cccs3)C2)cc1` (stereo unspecified), for which the TGI in the assay on 786-0 renal was 37.7 µM; in the assay on HL-60(TB) leukemia, 25.7 µM; with HOP-92 NSCLC it was 57 µM; in the assay on HT29 colon, 40.2 µM; in the assay with KM12 colon it was 29.1 µM; in the assay with NCI-H23 lung it was 73.4 µM. Further, the TGI is 28.8 µM in the assay with NCI-H460 lung; 21.2 µM with NCI-H522 lung; 41.1 µM in the assay with NCI/ADR-RES ovarian; 19.7 µM in the assay with OVCAR-3 ovarian; 69.9 µM with OVCAR-8 ovarian; 22.4 µM in the assay on RXF 393 renal. Also, the TGI in the assay on SF-268 CNS is 99.2 µM; in the assay with SF-295 CNS it was 44.1 µM; in the assay with SK-MEL-28 melanoma it was more than 100 µM; with SN12C renal, 53.3 µM; with SNB-75 CNS, 61.8 µM; in the assay with SW-620 colon, 48.4 µM. The compound further showed a TGI with T-47D breast of 50.5 µM.

For the compound `O=C(O)c1cc2c(cc1CC(Cc1ccc3c(c1)CCCC3)C(=O)O)CCCC2` (stereo unspecified), the TGI in the assay with 786-0 renal, in the assay with HL-60(TB) leukemia, in the assay with HOP-92 NSCLC, in the assay with HT29 colon, in the assay on KM12 colon and in the assay on NCI-H23 lung was more than 100 µM throughout. Moreover, the total growth inhibition concentration (TGI) with NCI-H460 lung, in the assay with NCI-H522 lung, with NCI/ADR-RES ovarian, in the assay with OVCAR-3 ovarian, in the assay with OVCAR-8 ovarian and in the assay on RXF 393 renal was more than 100 µM throughout. Moreover, the TGI in the assay with SF-268 CNS, with SF-295 CNS, in the assay on SK-MEL-28 melanoma, in the assay on SN12C renal, with SNB-75 CNS and with SW-620 colon was more than 100 µM in each case. For the same compound, the TGI in the assay with T-47D breast was more than 100 µM.
